Results on 22 molecules are retold here after US8124766B2, “Inhibitors of diacylglycerol acyltransferase” (Madrigal Pharmaceuticals, Inc., priority 2008, dated 2012).

The test system of the test is DGAT. As to the kind of experiment: DGAT Phospholipid FlashPlate Assay. The format is biochemical. The following applies: DGAT pellet, DAG-coated PL-FlashPlate, 14C-Pal-CoA, 37° C. for 1 hour; read-out: DGAT Inhibition Activity IC50. The protocol:
DGAT Phospholipid FlashPlate Assay
Materials for the assay were: PL-FlashPlate: Phospholipid FlashPlates from PerkinElmer, catalog number SMP108; DAG (1,2-Dioleoyl-sn-glycerol) 10 mM suspended in water containing 0.1% Triton X-100; ^14C-Pal-CoA (palmitoyl coenzyme A, [palmitoyl-1-^14C]) from PerkinElmer, catalog number NEC-555 with a specific activity of 55 mCi/mmol; and DGAT pellet, with a protein concentration of 9.85 mg/ml.
Aqueous buffers were prepared or purchased as follows: The coating buffer (CB) was purchased from PerkinElmer, catalog number SMP900A; the reaction buffer (RB) was 50 mM Tris-HCl, pH 7.5, 100 mM NaCl, 0.01% BSA in water; the washing buffer (WB) is 50 mM Tris-HCl, pH 7.5, 100 mM NaCl, 0.05% deoxycholic acid sodium salt in water; the dilution buffer (DB) was 50 mM Tris-HCl, pH 7.5, 100 mM NaCl, 1 mM EDTA, 0.2% Triton X-100 in water.
1,2-Dioleoyl-sn-glycerol (DAG, 10 mmoles) was diluted to 500 μM with coating buffer (CB). The diluted DAG solution was then added to 384-well PL-FlashPlates at 60 μl per well, and incubated at room temperature for 2 days. The coated plates were then washed twice with washing buffer (WB) before use. Test compounds were serial diluted to 2000, 666.7, 222.2, 74.1, 24.7, 8.2, 2.7 and 0.9 μM in 100% DMSO. Diluted compound were further diluted 10 fold with reaction buffer (RB). ^14C-Pal-CoA was diluted to 8.3 μM with RB. The DGAT pellet was diluted to 0.13 mg protein/ml with dilution buffer (DB) immediately before it was added to the PL-FlashPlates to start the reaction. 20 μl of the RB-diluted compounds (or 10% DMSO in RB for Total and Blank), 15 μl of RB diluted 14C-Pal-CoA and 15 μl of DB diluted DGAT pellet (DB without DGAT for Blanks) were transferred to each well of the PL-FlashPlates. The reaction mixtures were incubated at 37° C. for 1 hour. The reactions were stopped by washing 3 times with WB. Plates were sealed with Top-seal and read on a Topcount instrument.
Calculation of IC50: The IC50 values for each compound were generated using an Excel template. The Topcount rpm readings of Total and Blank were used as 0% and 100% inhibition. The percent inhibition values of reactions in the presence of compounds were calculated, and plotted against compound concentrations. All data were fitted into a Dose Response One Site model (4 parameter logistic model) as the following: (A+((B−A)/(1+((x/C)^D)))), with A and B as the bottom and top of the curve (highest and lowest inhibition), respectively, and C as IC50 and D as Hill Coefficient of the compound.
`CC(C)(C)OC(=O)N1CCN(c2ccc(NC(=O)c3cc4c(Cl)cccc4s3)cn2)CC1` [Example 1, 4-{5-[(4-Chloro-benzo[b]thiophene-2-carbonyl)-amino]-pyridin-2-yl}-piperazine-1-carboxylic acid tert-butyl ester]: the IC50 is 0.292 µM. The value for `CC(C)(CC(=O)N1CCN(c2ccc(NC(=O)c3cc4c(Cl)cccc4s3)cn2)CC1)C(=O)O` [Example 2, 4-(4-{5-[(4-Chloro-benzo[b]thiophene-2-carbonyl)-amino]-pyridin-2-yl}-piperazin-1-yl)-2,2-dimethyl-4-oxo-butyric acid] was 0.032 µM; that for `CC(C)(C)OC(=O)N1CCN(c2ccc(NC(=O)c3cc4cc(Br)ccc4s3)cn2)CC1` [Example 3, 4-{5-[(5-Bromo-benzo[b]thiophene-2-carbonyl)-amino]-pyridin-2-yl}-piperazine-1-carboxylic acid tert-butyl ester] was 0.479 µM. Turning to `CC(C)(CC(=O)N1CCN(c2ccc(NC(=O)c3cc4cc(Br)ccc4s3)cn2)CC1)C(=O)O` [Example 4, 4-(4-{5-[(5-Bromo-benzo[b]thiophene-2-carbonyl)-amino]-pyridin-2-yl}-piperazin-1-yl)-2,2-dimethyl-4-oxo-butyric acid], the IC50 was 0.085 µM. Take `CCOc1cccc2c1cc(C(=O)Nc1ccc(N3CCN(C(=O)OC(C)(C)C)CC3)nc1)n2CC` [Example 5, 4-{5-[(4-Ethoxy-1-ethyl-1H-indole-2-carbonyl)-amino]-pyridin-2-yl}-piperazine-1-carboxylic acid tert-butyl ester]: the IC50 amounted to 0.18 µM. `CCOc1cccc2c1cc(C(=O)Nc1ccc(N3CCN(C(=O)CC(C)(C)C(=O)O)CC3)nc1)n2CC` [Example 6, 4-(4-{5-[(4-Ethoxy-1-ethyl-1H-indole-2-carbonyl)-amino]-pyridin-2-yl}-piperazin-1-yl)-2,2-dimethyl-4-oxo-butyric acid]: the IC50 was 0.189 µM. Turning to `CCOc1cccc2c1cc(C(=O)Nc1ccc(C3CCN(C(=O)CC(C)(C)C(=O)O)CC3)cc1)n2CC` [Example 7, 4-(4-{4-[(4-Ethoxy-1-ethyl-1H-indole-2-carbonyl)-amino]-phenyl}-piperidin-1-yl)-2,2-dimethyl-4-oxo-butyric acid], the IC50 was found to be 0.316 µM. The value for `CCn1c(C(=O)Nc2ccc(C3CCN(C(=O)CC(C)(C)C(=O)O)CC3)cc2)cc2c(C)cccc21` [Example 8, 4-(4-{4-[(1-Ethyl-4-methyl-4H-indole-2-carbonyl)-amino]-phenyl}-piperidin-1-yl)-2,2-dimethyl-4-oxo-butyric acid] was 0.528 µM; that for `CCn1c(C(=O)Nc2ccc(C3CCN(C(=O)CC(C)(C)C(=O)O)CC3)cc2)cc2c(Cl)c(Cl)ccc21` [Example 9, 4-(4-{4-[(4,5-Dichloro-ethyl-1H-indole-2-carbonyl)-amino]-phenyl}-piperidin-1-yl)-2,2-dimethyl-4-oxo-butyric acid] was 0.333 µM. `CCCOc1cccc2c1cc(C(=O)Nc1ccc(N3CCN(C(=O)OC(C)(C)C)CC3)nc1)n2CC` [Example 10, 4-{5-[(1-Ethyl-4-propoxy-1,1-indole-2-carbonyl)-amino]-pyridin-2-yl}-piperazine-1-carboxylic acid tert-butyl ester]: the IC50 was 0.328 µM. Regarding `CCCOc1cccc2c1cc(C(=O)Nc1ccc(N3CCN(C(=O)CC(C)(C)C(=O)O)CC3)nc1)n2CC` [Example 11, 4-(4-{5-[(1-Ethyl-4-propoxy-1H-indole-2-carbonyl)-amino]-pyridin-2-yl}-piperazin-1-yl)-2,2-dimethyl-4-oxo-butyric acid], the IC50 turned out to be 0.105 µM. The value for `CCn1c(C(=O)Nc2ccc(N3CCN(C(=O)OC(C)(C)C)CC3)nc2)cc2c(OCC(C)C)cccc21` [Example 12, 4-{5-[(1-Ethyl-4-isobutoxy-1H-indole-2-carbonyl)-amino]-pyridin-2-yl}-piperazine-1-carboxylic acid tert-butyl ester] was 0.273 µM. For the molecule `CCn1c(C(=O)Nc2ccc(N3CCN(C(=O)CC(C)(C)C(=O)O)CC3)nc2)cc2c(OCC(C)C)cccc21` [Example 13, 4-(4-{5-[(1-Ethyl-4-isobutoxy-1H-indole-2-carbonyl)-amino]-pyridin-2-yl}-piperazin-1-yl)-2,2-dimethyl-4-oxo-butyric acid hydrochloric acid], the IC50 came out at 0.283 µM.

Turning to `CCn1c(C(=O)Nc2ccc(N3CCN(C(=O)OC(C)(C)C)CC3)nc2)cc2c(C(F)(F)F)cccc21` [Example 14, 4-{5-[(1-Ethyl-4-trifluoromethyl-1H-indole-2-carbonyl)-amino]-pyridin-2-yl}-piperazine-1-carboxylic acid tert-butyl ester], the IC50 stood at 0.433 µM.

Regarding `CCn1c(C(=O)Nc2ccc(N3CCN(C(=O)CC(C)(C)C(=O)O)CC3)nc2)cc2c(C(F)(F)F)cccc21` [Example 15, 4-(4-{5-[(1-Ethyl-4-trifluoromethyl-1H-indole-2-carbonyl)-amino]-pyridin-2-yl}-piperazin-1-yl)-2,2-dimethyl-4-oxo-butyric acid], the IC50 was found to be 0.183 µM.

Take `CCn1c(C(=O)Nc2ccc(N3CCN(C(=O)OC(C)(C)C)CC3)nc2)cc2c(OC)cc(OC)cc21` [Example 16, 4-{5-[(1-Ethyl-4,6-dimethoxy-1H-indole-2-carbonyl)-amino]-pyridin-2-yl}-piperazine-1-carboxylic acid tert-butyl ester]: the IC50 was found to be 0.248 µM. The value for `CCn1c(C(=O)Nc2ccc(N3CCN(C(=O)CC(C)(C)C(=O)O)CC3)nc2)cc2c(OC)cc(OC)cc21` [Example 17, 4-(4-{5-[(1-Ethyl-4,6-dimethoxy-1H-indole-2-carbonyl)-amino]-pyridin-2-yl}-piperazin-1-yl)-2,2-dimethyl-4-oxo-butyric acid] was 0.27 µM; that for `CCn1c(C(=O)Nc2ccc(N3CCN(C(=O)OC(C)(C)C)CC3)nc2)cc2c(Cl)c(Cl)ccc21` [Example 18, 4-{5-[(4,5-Dichloro-1-ethyl-1H-indole-2-carbonyl)-amino]-pyridin-2-yl}-piperazine-1-carboxylic acid tert-butyl ester] was 0.255 µM. The value for `CCn1c(C(=O)Nc2ccc(N3CCN(C(=O)CC(C)(C)C(=O)O)CC3)nc2)cc2c(Cl)c(Cl)ccc21` [Example 19, 4-(4-{5-[(4,5-Dichloro-1-ethyl-1H-indole-2-carbonyl)-amino]-pyridin-2-yl}-piperazin-1-yl)-2,2-dimethyl-4-oxo-butyric acid] was 0.08 µM; that for `CCn1c(C(=O)Nc2ccc(N3CCN(C(=O)OC(C)(C)C)CC3)nc2)cc2c(OC)cccc21` [Example 20, 4-{5-[(1-Ethyl-4-methoxy-1H-indole-2-carbonyl)-amino]-pyridin-2-yl}-piperazine-1-carboxylic acid tert-butyl ester] was 0.084 µM.

As for `CCOC(=O)N1CCN(c2ccc(NC(=O)c3cc4c(OC)cccc4n3CC)cn2)CC1` [Example 21, 4-{5-[(1-Ethyl-4-methoxy-1H-indole-2-carbonyl)-amino]-pyridin-2-yl}-piperazine-1-carboxylic acid ethyl ester], the IC50 worked out at 0.282 µM.

On to `CCn1c(C(=O)Nc2ccc(N3CCN(C(=O)OC(C)(C)C)CC3)nc2)cc2c(OC)c(OC)ccc21` [Example 22, 4-{5-[(1-Ethyl-4,5-dimethoxy-1H-indole-2-carbonyl)-amino]-pyridin-2-yl}-piperazine-1-carboxylic acid tert-butyl ester], for which the IC50 was determined as 0.086 µM.

As usually defined, the IC50 is the midpoint of a concentration-inhibition curve.
